Test results taken from US11000555B2, “Method for preparing a limax compound and therapeutic use thereof” (GUANGXI JIUFU BIOTECHNOLOGY CO., LTD, priority 2017, dated 2021).
Where a name gives a salt, the structure may show the parent alone. Marks after values point to notes of the source that are not given here.

Legend:
[1] = system: mice; assay: Hot plate test of analgesic effect; assay type: in vivo, Kunming mice; conditions: hot plate 55° C.; for Pain threshold: methadone 20 mg/kg, cut-off 60 seconds
Description: Kunming mice, female, were selected. And a selection among them was conducted prior to the test. The hot plate was adjusted to 55° C.±0.5° C., the female mice were placed on the hot plate, and the duration (in seconds) required from placing the mice on the hot plate until the mice licked their feet as the normal pain threshold of the mice. All those who licked their feet within 5 s or after 30 s and jumped were abandoned. Forty qualified mice were selected and randomly divided into 4 groups: a blank control group, a low dose Compound group, a high dose Compound group, and a positive control group, 10 mice per group. The normal pain threshold of each mouse was measured repeatedly, and the average of two measurements was taken as the pre-administration pain threshold of the mouse. Each group was then administered (at doses and by delivery routes as above), 0.2 ml per 10 g body weight. The pain threshold of each group was measured 60 min and 120 min after administration. If a mouse remained unresponsive for more than 60 seconds on the hot plate, its pain threshold was calculated as 60 seconds.

[2] = system: morphine-induced place preference of mice; assay: Conditioned place preference of morphine-induced mice; assay type: in vivo, Kunming mice
Description: The mice were acclimatized for 3 days, the natural place preference time of the mice was measured before the administration, so that the mice with obvious preference on one cuboid of the experimental box were excluded to clear the effect of unconditional place preference on the results. […] The observation was conducted under sound insulation conditions. […] Thus, the white cuboid was used as the non-preferred side (i.e., the companion box).
After 6 consecutive days of training and administration, the mice developed conditioned place preference.
Each group was administered for 3 consecutive days.

[3] = system: morphine-dependent mice; assay: Therapeutic effect on naloxone-induced withdrawal symptoms of morphine-dependent mice; assay type: in vivo, Kunming mice; conditions: methadone 20 mg/kg ig
Description: The model of morphine-dependent mice was replicated by the dose-increasing method. […] Group (1) was a blank control group, injected subcutaneously (sc) with normal saline (0.2 ml/10 g), and groups (2)˜(5) were used to replicate the model of morphine-dependent mice by the dose-increasing method.
The administration continued for 3 days for each group. Mice were free to drink and eat. Naloxone (8.0 mg/kg, ip) was given 1 h after administrations on d1 and d3 during the treatment to induce withdrawal symptoms, and jumping reaction in 30 min and body weights before and after the inducement were observed.

[4] = system: mice; assay: Acetic acid writhing test of mice; assay type: in vivo, Kunming mice; conditions: methadone 20 mg/kg, delivery route im; 0.6% acetic acid ip; in 20 min
Description: Forty Kunming mice, male, were fasted for 12 h before the experiment but free to drink water. They were randomly divided into 4 groups: a blank control group, a low dose Compound group, a high dose Compound group, and a positive control group. […] The mice were administered (ig) at a low dose (0.4 g/kg) and a high dose (0.8 g/kg) of the compound, at a volume of 0.2 ml per 10 g body weight. The positive control group was administered (ip) methadone (20 mg/kg) and the blank control group was given (ig) the same volume of normal saline. Forty-five minutes after administration, each mouse was given (ip) 0.6% acetic acid, 0.2 ml for each. The mice were then observed for writhing reaction, with abdominal contraction and hind limb extension or hip elevation regarded as positive. Times of writhing in 20 min were recorded starting from 5 min after acetic acid injection. The analgesic effect was evaluated by taking completely inhibiting writhing reaction induced by acetic acid as an indicator.

[5] = system: rats; assay: Physical dependence test: induced withdrawal test for the rats; conditions: morphine hydrochloride sc twice a day, increasing 5 to 60 mg/kg, 7 days; naloxone 5 mg/kg ip day 8
Description: The compound group was administered (ig) twice a day according to the dose increasing principle, at daily doses of 0.5, 1.0, 1.5, 2.0, 2.5, 3.0 g/kg. The dose was increased every day from 0.5 g/kg to 3.0 g/kg on day 6 which was adopted the same on day 7. The negative control group was given (ig) the same volume of vegetable oil per day at the same time and for the same times as the compound group. On day 8, the rats in each group were given naloxone (5 mg/kg, ip) to induce withdrawal, and the withdrawal status of the rats within 30 min and the weight change one hour before and after the inducement were observed. The evaluation criteria of withdrawal symptoms of rats were established by referring to the Tomoji Yanagita evaluation criteria and our pre-experimental results (see Appendix Table 17). The withdrawal scores and weight loss values of each group of rats were statistically processed. Weight loss value=weight before inducement−weight after inducement.

[6] = system: mice; assay: Physical dependence test: induced withdrawal test for the mice; conditions: morphine hydrochloride sc twice a day, increasing 25 to 150 mg/kg daily, 7 days, naloxone 8 mg/kg ip
Description: The daily doses were 25, 50, 75, 100, 125, 150 mg/kg according to the dose increasing principle, increased day by day, reached 150 mg/kg on day 6 which was adopted the same on day 7. The compound group was administered (ig) twice daily (8:00 am, 8:00 pm) at daily doses of 0.6, 1.2, 1.8, 2.4, 3.0, 3.6 g/kg. The dose increased every day from 0.6 g/kg to 3.6 g/kg on day 6 which was adopted the same on day 7. The negative control group was given (ig) the same volume of vegetable oil every day at the same time and for the same times as the compound group. On day 7, naloxone (8 mg/kg, ip) was given to each group of mice to induce withdrawal. The jump reaction within 30 min and weight change one hour before and after inducement were observed. Weight loss value=weight before inducement−weight after inducement.

[7] = system: mice; assay: Inducing the mice to sleep by a subthreshold dose of pentobarbital sodium; assay type: in vivo, Kunming mice; conditions: Estazolam 2 mg/kg; pentobarbital sodium 30 mg/kg ip; n = 20
Description: Eighty Kunming mice, half males and half females, were fasted for 12 h but free to drink water. The mice were randomly divided into four groups: a blank control group, a low does Compound group (0.4 g/kg, ig), a high dose Compound group (0.8 g/kg, ig) and a positive drug control group (Estazolam, 2 mg/kg). each group of mice was administered according to the above doses (ig), and the blank control group was given the same volume of normal saline. Forty-five minutes later, each mouse was given (ip) 30 mg/kg pentobarbital sodium, and the number of mice falling asleep within 15 min was recorded by taking the absence of righting reflex more than 1 min as the indicator of falling asleep.

[8] = system: mice; assay: Mouse spontaneous activity test; assay type: in vivo, Kunming mice
Description: Forty Kunming mice, half males and half females, were fasted for 12 h but free to drink water. The mice were randomly divided into four groups: a blank control group, a low does Compound group (0.4 g/kg, ig), a high dose Compound group (0.8 g/kg, ig) and a positive drug control group (Estazolam, 2 mg/kg). The mice were placed into the YLS-1A multifunctional recorder for spontaneous activities of small animals. After 5 minutes of adaptation, the number of the mice's spontaneous activities before administration were recorded, and the recording lasted for 10 minutes. The room was kept quiet during recording, at a room temperature of 20-24° C. After this, each group of mice was administered according to the above doses, and the number of spontaneous activities within 10 min were recorded 45 min later. The blank control group was given the same volume of normal saline (ig).

CCC(=O)C(CC(C)N(C)C)(c1ccccc1)c1ccccc1 (stereo not drawn) [methadone, Methadone hydrochloride, reference compound]
Pain threshold ([1]; 60 min): 58.4 ± 9.05 s | Pain threshold ([1]; 120 min): 51.5 ± 10.11 s | Pain threshold before administration ([1]; base line, methadone group): 24.4 ± 5.72 s | Duration of mice staying in companion box ([2]; After administration, methadone 20 mg/kg ig 3 days + morphine 9 mg/kg sc, 15 min observation): 499.6 ± 123.26*^ΔΔ s | Duration of mice staying in companion box ([2]; Before administration (base line), methadone 20 mg/kg + morphine 9 mg/kg group): 333.7 ± 114.95 s | Numbers of jumping reactions of mice (mice of n = 10) ([3]; d 1): 10 | Numbers of jumping reactions of mice, percentage ([3]; d 1): 100% | Weight change: body weights of mice before and after induced withdrawal ([3]; d 1): 0.22 ± 0.19 g | Numbers of jumping reactions of mice (mice of n = 10) ([3]; d 3): 10 | Numbers of jumping reactions of mice, percentage ([3]; d 3): 100% | Weight change: body weights of mice before and after induced withdrawal ([3]; d 3): 0.46 ± 0.23 g | Times of writhing [4]: 8.7 ± 3.74

CN1CC[C@]23c4c5ccc(O)c4O[C@H]2[C@@H](O)C=C[C@H]3[C@H]1C5.Cl [Morphine, Morphine hydrochloride, reference compound]
Induced withdrawal symptom score [5]: 76.9 ± 14.53 | Weight loss [6]: 0.57 ± 0.25 g | Number of jumps ([6]; 30 min): 64.10 ± 15.29

Clc1ccc2c(c1)C(c1ccccc1)=NCc1nncn1-2 [Estazolam, reference compound]
Number of the mice showing disappearance of righting reflex [7]: 18 per group | Number of spontaneous activities ([8]; After administration (45 min), Estazolam 2 mg/kg): 45.4 ± 34.43**^ΔΔ per 10 min | Number of spontaneous activities ([8]; Before administration, Estazolam group): 136.6 ± 43.35 per 10 min
